The source of these data is US9198914B2, “Methods and compositions for modulating RAD51 and homologous recombination” (The University of Chicago, priority 2007, dated 2015).

For assay [1], the target named is T1, human RAD51 (Homo sapiens, UniProt Q06609).
T1 sequence (Q06609 1-339): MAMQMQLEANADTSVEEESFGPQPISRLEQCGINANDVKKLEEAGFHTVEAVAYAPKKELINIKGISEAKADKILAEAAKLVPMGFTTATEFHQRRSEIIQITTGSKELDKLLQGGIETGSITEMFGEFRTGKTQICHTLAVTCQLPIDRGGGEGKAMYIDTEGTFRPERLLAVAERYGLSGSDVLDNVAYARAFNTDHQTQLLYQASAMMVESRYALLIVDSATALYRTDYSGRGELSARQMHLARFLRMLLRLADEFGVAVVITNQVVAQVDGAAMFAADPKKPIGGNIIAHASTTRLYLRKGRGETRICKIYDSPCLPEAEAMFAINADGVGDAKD
Put plainly: Strand invasion (D-loop) assay. Conditions: 0.8 μM RAD51; buffer that does not support joint molecule formation (1 mM ATP, 1 mM MgOAc). The class given is biochemical. Here is the method: FIGS. 6A-6B. Schematic of the strand invasion (D-loop) assay.
(§1) Conditions with scRAD51 additionally contained 110 nM scRAD54.

Assay [2] addresses RecA protein (the bacterial ortholog of RAD51) (Escherichia coli, UniProt P0A7G6). Conditions: RecA in place of RAD51.
Description: RAD51 filament formation can also be studied using oligonucleotides that are end-labeled with a fluorescent tag. Binding of proteins to this substrate DNA can be detected as an increase in anisotropy (or polarization) of the fluorescent tag. […] In this example, this method was modified so that very small sample volumes (30 μl) can be monitored in a high-throughput scale, using 384-well plates and a fluorescent plate reader. […] By varying the amount of substrate DNA, a threshold of approximately 0.1 μM RAD51 protein is required for in vitro filament formation in this system.
A naïve 10,000 compound library of small molecules (Chembridge DIVERSet collection) was screened. A ‘mixed compound’ screening strategy was used, wherein each reaction tested a mixture of 8 compounds.
Another assay has as its target T2, yeast DMC1 (Saccharomyces cerevisiae, UniProt P25453).
T2 sequence (P25453 1-334): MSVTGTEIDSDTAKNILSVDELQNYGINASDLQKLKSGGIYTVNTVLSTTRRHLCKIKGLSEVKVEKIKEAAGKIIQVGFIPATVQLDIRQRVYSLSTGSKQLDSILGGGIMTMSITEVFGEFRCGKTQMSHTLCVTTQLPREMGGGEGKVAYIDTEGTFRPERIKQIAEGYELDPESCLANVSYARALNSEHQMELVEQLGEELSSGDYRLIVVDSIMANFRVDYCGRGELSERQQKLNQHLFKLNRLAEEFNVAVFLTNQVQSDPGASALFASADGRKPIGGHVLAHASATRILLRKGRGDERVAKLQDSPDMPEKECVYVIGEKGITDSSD
Put plainly: Strand invasion (D-loop) assay with DMC1 in place of RAD51. Format: biochemical. On the procedure:
as §1

Assay [3] has as its target T1, human RAD51. Put plainly: Fluorescence polarization assay for RAD51 filament formation on fluorescein-labeled oligonucleotide. The class given is biochemical. Here is the method:
FIGS. 2A-2B. FIG. 2A, top: Schematic of protein filament formation monitored in vitro using a fluorescence polarization assay. FIG. 2A, bottom: Purified RAD51 protein (wild type or mutant F86E) were serially diluted. RecA (New England Biolabs) was used as a positive control. Proteins were added to a 5′terminal fluorescein conjugated oligonucleotide (45 bases of dT) at a 1 μM nucleotide concentration. The mixture was incubated at 37° C. for 30 minutes in 384-well plates containing a reaction buffer (30 mM Tris/acetate pH 7.5, 10 mM Mg^2+/acetate, 2 mM ATP, 0.1 mM DTT, 0.5 μM BSA). Fluorescence polarization was measured with a plate reader (filters: excitation=485 nm, emission=510 nm). FIG. 2B, top: Varying concentrations of 5′terminal fluorescein conjugated oligonucleotide were used to determine the threshold RAD51 concentration.
The assay of Example 2 was used to serve in the screen of a small-molecule chemical library for compounds that stimulate RAD51 filament formation. […] Multiple positive (+RAD51) and negative […] controls were tested, and these readings were tested using the statistical method described by Zhang et al. (1999), which evaluates the suitability of an HT assay. The assay as described has a Z-factor of 0.82, validating it as an excellent assay for HT screening.
The assay of Example 2 was used to serve in the screen of a small-molecule chemical library for compounds that inhibit RAD51 filament formation. […] FP readings were very reproducible with reaction volumes in the 10-100 μl range, and 100 μl was typically used. […] The assay was optimized such that the positive control FP reading was ˜50% of maximal reaction saturation; the RAD51 protein concentration was 0.3 uM and the fluorescein-labeled DNA is at 0.1 uM (nucleotide concentration). […] The average FP readings for positive control and negative control are 344 mP (SD=13.4) and 27 mP (SD=5.3), respectively. These readings were tested using the statistical method described by Zhang et al, which evaluates the suitability of an HT assay (Zhang et al., 1999). […]
In general terms: Fluorescence polarisation rises when a labelled molecule tumbles more slowly, as on binding a larger partner.

Assay [4] deals with chicken lymphocyte DT40 cells. Put plainly: Clonogenic survival study in the presence of radiation. Format: cell-based. Conditions: compound added about 30 minutes after irradiation, 24 hours. On the procedure: Single chicken lymphocyte DT40 cells were irradiated. Thirty minutes later, they were incubated with compound 45488 (also called compound 5253121) for 24 hours. Single cells were then plated (100, 1000, or 10000) in 6-well plates in media. Because DT40 cells are not adherent to plastic surfaces, the media included methylcellulose to provide viscosity. After 7-10 days, the resulting colonies are counted, and survival is reported as a colony-forming ability relative to un-irradiated cells.

In the next assay the target is bacterial RecA (Escherichia coli, UniProt P0A7G6).
Chain of bacterial RecA (P0A7G6 whole entry): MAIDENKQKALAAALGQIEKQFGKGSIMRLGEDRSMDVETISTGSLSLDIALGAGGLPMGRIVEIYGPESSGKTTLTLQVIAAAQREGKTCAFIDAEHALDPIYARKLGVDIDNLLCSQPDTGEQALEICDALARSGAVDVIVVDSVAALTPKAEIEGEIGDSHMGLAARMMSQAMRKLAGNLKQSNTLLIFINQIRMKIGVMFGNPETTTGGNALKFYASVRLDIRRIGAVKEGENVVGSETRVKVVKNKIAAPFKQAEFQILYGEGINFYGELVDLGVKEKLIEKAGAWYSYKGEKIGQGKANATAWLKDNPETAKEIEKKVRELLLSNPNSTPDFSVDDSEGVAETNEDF

Entries after “also recorded” stand apart in the source; their conditions may differ.

Chain of RecA protein (the bacterial ortholog of RAD51) (P0A7G6 2-353): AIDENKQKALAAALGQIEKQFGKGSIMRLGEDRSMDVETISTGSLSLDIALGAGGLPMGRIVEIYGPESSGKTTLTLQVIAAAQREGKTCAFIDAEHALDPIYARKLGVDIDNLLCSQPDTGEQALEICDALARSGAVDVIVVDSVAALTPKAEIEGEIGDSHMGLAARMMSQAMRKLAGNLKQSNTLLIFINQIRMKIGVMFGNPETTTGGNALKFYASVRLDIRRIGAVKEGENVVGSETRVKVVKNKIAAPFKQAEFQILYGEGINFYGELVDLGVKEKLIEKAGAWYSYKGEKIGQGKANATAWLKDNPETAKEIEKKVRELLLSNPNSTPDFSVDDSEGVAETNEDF
Description for bacterial RecA: Briefly, 15 μl reaction volumes included a DNA strand exchange protein (0.8 μM) that was pre-incubated for 5 min at 37° C. with 1 μM (nucleotide concentration) ^32P-labeled oligonucleotide in a reaction buffer containing 20 mM Hepes (pH 7.5), 1 mM DTT, 2 mM nucleotide cofactor, and 1 mM MgCl2, and various concentrations of RS-1. For experimental buffer conditions that included calcium, 1 mM CaCl2 was present in addition to (in the case of hRAD51) or in the place of (in the case of RecA and scRAD51) the 1 mM MgCl2. Conditions with scRAD51 additionally contained 110 nM scRAD54. Following this initial binding reaction, 10 μl of 19.75 μM (base pair concentration) supercoiled homolog-containing target plasmid DNA (pRS306) was next added along with sufficient magnesium acetate to give a final concentration of 10 mM. DNA substrates were allowed form a homology dependent association (or ‘D-loop’), and reactions were stopped with SDS and proteinase K. The resulting DNA was separated on 1.3% agarose gels, transferred onto nitrocellulose membranes, analyzed by phosphorimaging, and quantified with ImageJ 1.37v software (NIH).
These experiments were repeated using other recombinase proteins (bacterial RecA and yeast DMC1) in the place of human RAD51.

For `O=C(Nc1ccc(Br)cc1)c1ccc(Br)c(S(=O)(=O)NCc2ccccc2)c1` [compound 45488], on human RAD51 [1], the “joint molecule formation / DNA strand invasion activity of RAD51” value is recorded as “capable of stimulating DNA strand invasion activity of RAD51; also recorded: concentration dependent increase in joint molecule formation”. The “stimulation of RecA filament formation” value in assay [2] is “no stimulation of filament formation”. Also, the “effect on strand invasion by DMC1” value at yeast DMC1 is given as “some inhibition”. Further, the “stability of RAD51 filaments in high salt” value at human RAD51 [3] (buffers containing high salt concentrations) is listed as “protects these filaments from buffers containing high salt concentrations; also recorded: stabilizes RAD51 filaments in the presence of high salt concentrations”. In addition, the “effect on RAD51 filament formation” value at human RAD51 [3] (compound at 20 μM) is “enhances filament formation”; on human RAD51 [3] (further study), “enhances RAD51 filament formation”. Moreover, the “protection of cells from radiation (colony-forming ability)” value in assay [4] is given as “protects the cells from radiation damage”. Moreover, on bacterial RecA, the “effect on strand invasion by RecA” value is “no effect”.
